Assay results taken from patent publication US4534971A, “Complexation of anthracycline and anthraquinone antibiotics by the apo riboflavin binding protein from eggs” (Regents of the University of Minnesota, priority 1982, dated 1985).
“Also recorded” adds a separate entry of the source. Like-named read-outs stand apart in the source and are kept apart here.

Columns and labels:
[1] = target: T1, apo riboflavin binding protein from eggs (Gallus gallus, UniProt P02752); assay: Anaerobic dithionite redox titration of the daunomycin-binding protein complex; parameters: species or system chicken
T1 construct: obtained in homogeneous form from chicken egg white; from tissue; host or cells: chicken egg white
T1 sequence (P02752 18-238): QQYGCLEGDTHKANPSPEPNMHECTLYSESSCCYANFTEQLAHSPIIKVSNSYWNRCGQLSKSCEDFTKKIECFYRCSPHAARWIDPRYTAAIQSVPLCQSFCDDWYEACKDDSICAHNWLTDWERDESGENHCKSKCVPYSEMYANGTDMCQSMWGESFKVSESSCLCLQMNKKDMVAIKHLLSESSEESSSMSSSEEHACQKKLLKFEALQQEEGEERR
From the text: A further use of the antibiotic-protein complex is in redox titrations. Aqueous redox titrations of anthracyclines cannot be done. Although anthracycline glycosides are water soluble, loss of the glycoside (with its positive charge) provides the almost completely water insoluble 7-deoxyanthracyclinones. Unfortunately, glycoside loss is an integral aspect of anthracycline redox chemistry. The binding protein-anthracyclinecomplex has been used for anaerobic aqueous redox titrations. Dithionite reduction of the anthracycline glycoside provides, in a 2e^- process, the 7-deoxyanthracyclinone, via reductive elimination. The bound 7-deoxyanthracyclinone is then further 2e^- reduced to the bound hydroquinone. Semi-quinone radical intermediates are observed transiently; these are stable neither in solution nor complexed to the binding protein. Oxidation of the hydroquinone is accomplished by several reagents (oxygen, hydrogen peroxide, ferricyanide, cytochrome c). In the case of 7-deoxydaunomycinone hydroquinone, a mixture of two products is produced upon oxidation; these are the chromo 7-deoxydaunomycinone (identical to the first 2e^- reduction intermediate) and its leuco isomer, 8-acetyl-7,8,9,10-tetrahydro-5,8,12-trihydroxy-1-methoxy-6,11-napthacenedione(iso-7-deoxydaunomycinone).
An anaerobic redox titration of the daunomycin-binding protein complex was done. […]

[2] = target: T1, apo riboflavin binding protein from eggs; assay: Titration of antibiotic with egg riboflavin binding protein; dissociation constant; parameters: species or system chicken
Procedure: The purified protein may be stored, for example, frozen at -20° C. in 10 mM potassium phosphate, 1 mM EDTA pH 7.0 buffer, at concentrations between about 1 and 10 mM.
A working solution of adriamycin was obtained by dissolution in warm 0.035M potassium phosphate pH 7.0 buffer containing 0.15M NaCl and 0.5 mM EDTA and cooled to ambient temperature (24±2° C.). To a 3.0 mL solution containing 3 μM adriamycin was added 5.0 μL increments of a 0.49 mM binding protein solution in 10 mM potassium phosphate, 1 mM EDTA pH 7.0 buffer.
Daunomycin was dissolved in warm buffer, followed by cooling. […] AD-32 was dissolved in dimethylformamide.
The binding protein affinity of three anthracyclinones was determined: (±)-aklavinone, 7-deoxydaunomycinone and iso-7-deoxydaunomycinone. Aklavinone and 7-deoxydaunomycinone were made as concentrated solutions in dimethylformamide, and the solution concentrations determined by dilution into alcohol. Leuco iso-7-deoxydaunomycinone was dissolved in dimethylformamide and diluted into buffer. The general procedure of Example 1 was followed.
Solutions were prepared and admixed as previously described.

[3] = Stability of free and binding protein-complexed compound (isomerization, light, storage); format: physicochemical
From the text: Also of interest is the high affinity of the binding protein for iso-7-deoxydaunomycinone(8-acetyl-7,8,9,10-tetrahydro-5,8,12-trihydroxy-1- methoxy-6,11-napthacenedione). This compound is a kinetic product of 7-deoxydaunomycinone hydroquinone oxidation.
An anaerobic redox titration of the daunomycin-binding protein complex was done. The reducing agent used was dithionite anion. Spectrophotometric titrations were made on a Cary 219 spectrophotometer. Anaerobic titrations were done with gas tight syringes, with the deoxygenated solutions maintained under a positive pressure of O2 -free nitrogen. Dithionite was freshly prepared in O2 -free buffer and standardized by anaerobic riboflavin titration. Equilibration with dithionite is in all instances complete in seconds. […] Assignment of structure to this titration intermediate was confirmed by its isolation, and chromatographic comparison with an authentic sample. Further dithionite addition reduces the bound 7-deoxydaunomycinone to a new chromophore (λmax =407 nm). The hydroquinone is not further reduced, but is very easily oxidized upon mixing with oxidants such as oxygen, hydrogen peroxide, ferricyanide and cytochrome c. The absorption spectrum obtained following complete oxygen oxidation of the hydroquinone is different than any previous spectrum. Longer wavelength features, indicating the presence of 7-deoxydaunomycinone, are seen but a new chromophore (λmax approximately 445 nm) is also present. The structure of the compound corresponding to this chromophore is iso-7-deoxydaunomycinone on the basis of its spectroscopic data. In neutral aqueous buffer in the absence of the binding protein this compound promptly isomerizes to 7-deoxydaunomycinone (k=6×10^-4 s^-1). […] Binding protein stabilization is also reflected in an estimated 10-fold slower rate of dithionite reduction of the iso-7-deoxydaunomycinone compared to either 7-deoxydaunomycinone or daunomycin.

[4] = general procedure of Example 1, read-out: Kd (anthracyclinones, Examples 8-10)
[5] = general procedure of Example 1, read-out: Kd (anthracycline glycosides, Examples 2-7)
[6] = spectrophotometric, solutions prepared and admixed as previously described, read-out: Kd (anthraquinones and anthraquinone-like molecules, Examples 11-15)

Structure (SMILES): COc1cccc2c1C(=O)c1c(O)c3c(c(O)c1C2=O)C[C@@](O)(C(C)=O)C[C@@H]3O[C@H]1C[C@H](N)[C@H](O)[C@H](C)O1 [Daunomycin]
- redox behaviour in titration (in words) ([1]; anaerobic, dithionite, oxidation by oxygen, hydrogen peroxide, ferricyanide, cytochrome c): first converted in a 2e^- process to 7-deoxydaunomycinone, with reductive elimination of the glycoside
- Kd [2]: 0.4 µM
- binding to the binding protein (in words) [2]: bind with an affinity hardly different than that of adriamycin

Structure (SMILES): COc1cccc2c(O)c3c(c(O)c12)C(=O)C1=C(C[C@@](O)(C(C)=O)CC1)C3=O [Iso-7-deoxydaunomycinone, 8-acetyl-7,8,9,10-tetrahydro-5,8,12-trihydroxy-1-methoxy-6,11-napthacenedione]
- slower rate of dithionite reduction compared to either 7-deoxydaunomycinone or daunomycin ([1]; binding protein stabilization, estimated): ~10 fold
- binding to the binding protein (in words) [2]: high affinity; also recorded: preferentially bound by the riboflavin binding protein
- Kd [2, 4]: 0.02 µM
- stability (in words) ([3]; complexed to the binding protein): stable in organic solvents and when complexed to the binding protein; also recorded: stable for days
- stability (in words) ([3]; free compound, aqueous buffer or organic solvents): not stable in aqueous buffer to isomerization to 7-deoxydaunomycinone; also recorded: stable in organic solvents
- rate constant k of isomerization to 7-deoxydaunomycinone ([3]; neutral aqueous buffer, absence of the binding protein): 0.0006 s⁻¹

Structure (SMILES): CC(=O)[C@]1(O)Cc2c(O)c3c(c(O)c2[C@@H](O[C@H]2C[C@H](N)[C@H](O)[C@H](C)O2)C1)C(=O)c1ccccc1C3=O [4-Demethoxydaunomycin]
- binding to the binding protein (in words) [2]: bind with an affinity hardly different than that of adriamycin
- Kd [2, 5]: 0.3 µM

Structure (SMILES): COc1cccc2c1C(=O)c1c(O)c3c(c(O)c1C2=O)C[C@@](O)(C(C)=O)CC3 [7-Deoxydaunomycinone]
- Kd [2, 4]: 0.08 µM

Structure (SMILES): CC[C@@]1(O)C[C@H](O[C@H]2C[C@H](N(C)C)[C@H](O[C@H]3C[C@H](O)[C@H](O[C@H]4CCC(=O)[C@H](C)O4)[C@H](C)O3)[C@H](C)O2)c2c(cc3c(c2O)C(=O)c2c(O)cccc2C3=O)[C@H]1C(=O)OC [Aclacinomycin A]
- Kd [2]: 1 µM
- binding to the binding protein (in words) [2]: bind with an affinity hardly different than that of adriamycin
- binding to the binding protein (in words) ([2]; listed as aclacinomycin A): tight binding

Structure (SMILES): COC(=O)[C@@H]1c2cc3c(c(O)c2[C@@H](O[C@@H]2O[C@@H](C)[C@H](OC)[C@@](C)(OC)[C@H]2OC)C[C@]1(C)O)C(=O)c1c(O)cc2c(c1C3=O)O[C@@H]1O[C@@]2(C)[C@H](O)[C@@H](N(C)C)[C@@H]1O [Nogalomycin]
- binding to the binding protein (in words) [2]: All save nogalomycin bind
- Kd [2, 5]: > 1000 µM

Structure (SMILES): CN(C)[C@@H]1C(=O)C(C(N)=O)=C(O)[C@@]2(O)C(=O)C3=C(O)c4c(O)cccc4[C@@](C)(O)[C@H]3C[C@@H]12 [Tetracycline]
- Kd [2]: > 250 µM
- binding to the binding protein (in words) [2]: neither tetracycline nor carminic acid (an insect feeding deterrent) bind

Structure (SMILES): Cc1c(C(=O)O)c(O)cc2c1C(=O)c1c(O)c([C@@H]3O[C@H](CO)[C@@H](O)[C@H](O)[C@H]3O)c(O)c(O)c1C2=O [Carminic acid]
- binding to the binding protein (in words) [2]: neither tetracycline nor carminic acid (an insect feeding deterrent) bind
- Kd [2, 6]: > 250 µM

Structure (SMILES): CC[C@@]1(O)C[C@H](O)c2c(cc3c(c2O)C(=O)c2c(O)cccc2C3=O)[C@H]1C(=O)OC (relative stereo) [(±)-Aklavinone]
- Kd [2]: 0.02 µM
- binding to the binding protein (in words) [2]: both enantiomers of the racemic aklavinone (7S, 9R, 10R, and 7R, 9S, 10S) are equally well bound

Structure (SMILES): CCCCC(=O)OCC(=O)[C@]1(O)Cc2c(O)c3c(c(O)c2[C@@H](O[C@H]2C[C@H](NC(=O)C(F)(F)F)[C@H](O)[C@H](C)O2)C1)C(=O)c1c(OC)cccc1C3=O [AD-32, N-trifluoroacetyl-14-valeryl-adriamycin]
- binding to the binding protein (in words) [2]: binds well; also recorded: tight binding
- formation of AD-32-binding protein complex ([2]; concentrated DMF solution added to slight molar excess of apo protein, approximately 20 μM each): quantitative formation of the AD-32-binding protein complex

Structure (SMILES): COc1cccc2c1C(=O)c1c(O)c3c(c(O)c1C2=O)C[C@@](O)(C(=O)CO)C[C@@H]3O[C@H]1C[C@H](N)[C@H](O)[C@H](C)O1 [Adriamycin]
- Kd [2]: 0.5 ± 0.1 µM
- binding to the binding protein (in words) [2]: good binding

Structure (SMILES): O=C1c2c(O)ccc(O)c2C(=O)c2c(NCCNCCO)ccc(NCCNCCO)c21 [DHAQ, 1,4-dihydroxy-5,8-bis[[2-(hydroxyethyl)amino]ethyl]-9. 10-anthracenedione]
- binding to the binding protein (in words) [2]: bound weakly
- Kd [2, 6]: 60 µM

Structure (SMILES): Cc1cc2nc3c(=O)[nH]c(=O)nc-3n(C[C@H](O)[C@H](O)[C@H](O)CO)c2cc1C [riboflavin]
- binding to the binding protein (in words) [2]: no compound is more tightly bound by the egg binding protein than riboflavin

Structure (SMILES): CN(C)CCCN1c2ccccc2Sc2ccc(Cl)cc21 [Chlorpromazine]
- binding to the binding protein (in words) [2]: high affinity
- Kd [2, 6]: ~1 µM

Structure (SMILES): CC(=O)[C@@]1(O)Cc2c(O)c3c(c(O)c2[C@H](O[C@H]2C[C@H](N)[C@H](O)[C@H](C)O2)C1)C(=O)c1ccccc1C3=O [7,9-Diepi-4-demethoxydaunomycin]
- binding to the binding protein (in words) [2]: binds most tightly of all
- Kd [2, 5]: 0.08 µM

Structure (SMILES): CCN(CC)CCCC(C)Nc1c2ccc(Cl)cc2nc2ccc(OC)cc12 (centres unmarked) [Quinacrine]
- binding to the binding protein (in words) [2]: high affinity
